Assay results as given in PubChem BioAssay (NCI).
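Where inhibition never reached the appropriate level, the endpoint shown equals the highest concentration tested. Otherwise, values were interpolated linearly from a five-concentration, 48-hour dose response in 96-well plates. Here, GI50 denotes the concentration required for 50% inhibition of growth. The concentration for full growth arrest is given as TGI.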

What was measured:
Assay in all cases: inhibition of tumour cell growth, NCI panel, 48 h
HT29 colon = tested on: HT29 colon
SN12C renal = tested on: SN12C renal
HL-60(TB) leukemia = tested on: HL-60(TB) leukemia
MDA-MB-435 = tested on: MDA-MB-435
LOX IMVI melanoma = tested on: LOX IMVI melanoma
SW-620 colon = tested on: SW-620 colon
SNB-75 CNS = tested on: SNB-75 CNS
K-562 leukemia = tested on: K-562 leukemia
A498 renal = tested on: A498 renal
A549 NSCLC = tested on: A549 NSCLC
MDA-MB-468 breast = tested on: MDA-MB-468 breast
EKVX NSCLC = tested on: EKVX NSCLC
SK-MEL-28 melanoma = tested on: SK-MEL-28 melanoma
SK-MEL-2 melanoma = tested on: SK-MEL-2 melanoma
OVCAR-5 ovarian = tested on: OVCAR-5 ovarian
SR leukemia = tested on: SR leukemia
OVCAR-8 ovarian = tested on: OVCAR-8 ovarian
ACHN renal = tested on: ACHN renal
CCRF-CEM leukemia = tested on: CCRF-CEM leukemia
HOP-62 NSCLC = tested on: HOP-62 NSCLC
BT-549 breast = tested on: BT-549 breast
SK-MEL-5 melanoma = tested on: SK-MEL-5 melanoma
NCI-H23 lung = tested on: NCI-H23 lung
UACC-257 melanoma = tested on: UACC-257 melanoma
U251 CNS = tested on: U251 CNS
KM12 colon = tested on: KM12 colon
OVCAR-3 ovarian = tested on: OVCAR-3 ovarian
SF-268 CNS = tested on: SF-268 CNS
NCI-H226 lung = tested on: NCI-H226 lung
MCF7 breast = tested on: MCF7 breast
SF-539 CNS = tested on: SF-539 CNS
HCC-2998 colon = tested on: HCC-2998 colon
CAKI-1 renal = tested on: CAKI-1 renal
DU-145 prostate = tested on: DU-145 prostate
PC-3 prostate = tested on: PC-3 prostate
SK-OV-3 ovarian = tested on: SK-OV-3 ovarian
UACC-62 melanoma = tested on: UACC-62 melanoma
RXF 393 renal = tested on: RXF 393 renal
SF-295 CNS = tested on: SF-295 CNS
TK-10 renal = tested on: TK-10 renal
MDA-MB-231 breast = tested on: MDA-MB-231 breast
NCI-H460 lung = tested on: NCI-H460 lung
HOP-92 NSCLC = tested on: HOP-92 NSCLC
786-0 renal = tested on: 786-0 renal
RPMI-8226 leukemia = tested on: RPMI-8226 leukemia
HCT-116 colon = tested on: HCT-116 colon
M14 melanoma = tested on: M14 melanoma
HS 578T breast = tested on: HS 578T breast
HCT-15 colon = tested on: HCT-15 colon
MOLT-4 leukemia = tested on: MOLT-4 leukemia
SNB-19 CNS = tested on: SNB-19 CNS
OVCAR-4 ovarian = tested on: OVCAR-4 ovarian
NCI/ADR-RES ovarian = tested on: NCI/ADR-RES ovarian
T-47D breast = tested on: T-47D breast
NCI-H522 lung = tested on: NCI-H522 lung
COLO 205 colon = tested on: COLO 205 colon
IGROV1 ovarian = tested on: IGROV1 ovarian
UO-31 renal = tested on: UO-31 renal

SMILES: COc1sc(/C=N/NC(=O)c2[nH]c3ccc(Br)cc3c2-c2ccccc2)cc1Br
- GI50 (HT29 colon): 1.16 µM
- TGI (HT29 colon): > 100 µM
- GI50 (SN12C renal): 2.91 µM
- TGI (SN12C renal): > 100 µM
- GI50 (HL-60(TB) leukemia): 1.62 µM
- TGI (HL-60(TB) leukemia): 5.53 µM
- GI50 (MDA-MB-435): 0.324 µM
- TGI (MDA-MB-435): 1.8 µM
- GI50 (LOX IMVI melanoma): 2.93 µM
- TGI (LOX IMVI melanoma): 35.8 µM
- GI50 (SW-620 colon): 3.28 µM
- TGI (SW-620 colon): > 100 µM
- GI50 (SNB-75 CNS): 0.359 µM
- TGI (SNB-75 CNS): 25.3 µM
- GI50 (K-562 leukemia): 0.508 µM
- TGI (K-562 leukemia): > 100 µM
- GI50 (A498 renal): 5.44 µM
- TGI (A498 renal): 39.4 µM
- GI50 (A549 NSCLC): 3.35 µM
- TGI (A549 NSCLC): > 100 µM
- GI50 (MDA-MB-468 breast): 2.18 µM
- TGI (MDA-MB-468 breast): 6.88 µM
- GI50 (EKVX NSCLC): 5.7 µM
- TGI (EKVX NSCLC): > 100 µM
- GI50 (SK-MEL-28 melanoma): 4.89 µM
- TGI (SK-MEL-28 melanoma): > 100 µM
- GI50 (SK-MEL-2 melanoma): 5.12 µM
- TGI (SK-MEL-2 melanoma): > 100 µM
- GI50 (OVCAR-5 ovarian): 3.39 µM
- TGI (OVCAR-5 ovarian): 69.9 µM
- GI50 (SR leukemia): 1.1 µM
- TGI (SR leukemia): > 100 µM
- GI50 (OVCAR-8 ovarian): 0.499 µM
- TGI (OVCAR-8 ovarian): > 100 µM
- GI50 (ACHN renal): 3.27 µM
- TGI (ACHN renal): > 100 µM
- GI50 (CCRF-CEM leukemia): 2.11 µM
- TGI (CCRF-CEM leukemia): > 100 µM
- GI50 (HOP-62 NSCLC): 0.353 µM
- TGI (HOP-62 NSCLC): 37.5 µM
- GI50 (BT-549 breast): 3.3 µM
- TGI (BT-549 breast): 8.1 µM
- GI50 (SK-MEL-5 melanoma): 2.12 µM
- TGI (SK-MEL-5 melanoma): 4.97 µM
- GI50 (NCI-H23 lung): 3.67 µM
- TGI (NCI-H23 lung): > 100 µM
- GI50 (UACC-257 melanoma): > 100 µM
- TGI (UACC-257 melanoma): > 100 µM
- GI50 (U251 CNS): 3.65 µM
- TGI (U251 CNS): > 100 µM
- GI50 (KM12 colon): 3.03 µM
- TGI (KM12 colon): > 100 µM
- GI50 (OVCAR-3 ovarian): 1.2 µM
- TGI (OVCAR-3 ovarian): 12 µM
- GI50 (SF-268 CNS): 2.82 µM
- TGI (SF-268 CNS): > 100 µM
- GI50 (NCI-H226 lung): 2.87 µM
- TGI (NCI-H226 lung): 68.9 µM
- GI50 (MCF7 breast): 1.54 µM
- TGI (MCF7 breast): > 100 µM
- GI50 (SF-539 CNS): 1.93 µM
- TGI (SF-539 CNS): 5.51 µM
- GI50 (HCC-2998 colon): 3.74 µM
- TGI (HCC-2998 colon): > 100 µM
- GI50 (CAKI-1 renal): 0.892 µM
- TGI (CAKI-1 renal): > 100 µM
- GI50 (DU-145 prostate): 3.36 µM
- TGI (DU-145 prostate): > 100 µM
- GI50 (PC-3 prostate): 3.14 µM
- TGI (PC-3 prostate): > 100 µM
- GI50 (SK-OV-3 ovarian): 0.365 µM
- TGI (SK-OV-3 ovarian): > 100 µM
- GI50 (UACC-62 melanoma): 0.988 µM
- TGI (UACC-62 melanoma): > 100 µM
- GI50 (RXF 393 renal): 4.27 µM
- TGI (RXF 393 renal): > 100 µM
- GI50 (SF-295 CNS): 2.84 µM
- TGI (SF-295 CNS): > 100 µM
- GI50 (TK-10 renal): 88.9 µM
- TGI (TK-10 renal): > 100 µM
- GI50 (MDA-MB-231 breast): 3.21 µM
- TGI (MDA-MB-231 breast): > 100 µM
- GI50 (NCI-H460 lung): 3.03 µM
- TGI (NCI-H460 lung): 12.4 µM
- GI50 (HOP-92 NSCLC): 26.5 µM
- TGI (HOP-92 NSCLC): > 100 µM
- GI50 (786-0 renal): 2.84 µM
- TGI (786-0 renal): > 100 µM
- GI50 (RPMI-8226 leukemia): 1.92 µM
- TGI (RPMI-8226 leukemia): > 100 µM
- GI50 (HCT-116 colon): 1.25 µM
- TGI (HCT-116 colon): > 100 µM
- GI50 (M14 melanoma): 2.25 µM
- TGI (M14 melanoma): > 100 µM
- GI50 (HS 578T breast): 1.92 µM
- TGI (HS 578T breast): > 100 µM
- GI50 (HCT-15 colon): 3.27 µM
- TGI (HCT-15 colon): > 100 µM
- GI50 (MOLT-4 leukemia): 3.16 µM
- TGI (MOLT-4 leukemia): 35.6 µM
- GI50 (SNB-19 CNS): 3.98 µM
- TGI (SNB-19 CNS): > 100 µM
- GI50 (OVCAR-4 ovarian): 9.78 µM
- TGI (OVCAR-4 ovarian): > 100 µM
- GI50 (NCI/ADR-RES ovarian): 2.12 µM
- TGI (NCI/ADR-RES ovarian): 6.45 µM
- GI50 (T-47D breast): 45.2 µM
- TGI (T-47D breast): > 100 µM
- GI50 (NCI-H522 lung): 0.259 µM
- TGI (NCI-H522 lung): 0.686 µM
- GI50 (COLO 205 colon): 0.223 µM
- TGI (COLO 205 colon): 0.516 µM
- GI50 (IGROV1 ovarian): 3.5 µM
- TGI (IGROV1 ovarian): > 100 µM
- GI50 (UO-31 renal): 4.21 µM
- TGI (UO-31 renal): > 100 µM
